Earlier results in article PMC6008465 (British Journal of Cancer, 2018).

Tested on: patients
Set-up: method as in Mekinist (trametinib) tablets package insert, Novartis 2017
Conditions: oral; ref Mekinist (trametinib) tablets package insert, Novartis 2017; cited from earlier work

SMILES: CC(=O)Nc1cccc(-n2c(=O)n(C3CC3)c(=O)c3c(Nc4ccc(I)cc4F)n(C)c(=O)c(C)c32)c1 [trametinib]
- Adverse events associated in clinical trials: retinal pigment epithelial detachment, retinal vein occlusion, interstitial lung disease, skin toxicity, and cardiomyopathy
